Values of other authors in patent publication US20140315941A1, “METHOD OF REDUCING CNS AND GASTRO[…] AFFECTS ASSOCIATED WITH LONG-TERM, DEXTROMETHORPHAN/LOW-DOSE QUINIDINE COMBINATION THERAPY” (Avanir Pharmaceuticals, Inc., priority 2009, published 2014).

Experiments:
[1] = tested on: pain threshold in CYP2D6 extensive and poor metabolizers; conditions: extensive vs poor metabolizers
[2] = some patients with Huntington's disease; DM doses eight times the maximum antitussive dose
CYP2D6 = CYP2D6 (Homo sapiens, UniProt P10635); conditions: in vitro
Sequence of CYP2D6 (P10635 whole entry): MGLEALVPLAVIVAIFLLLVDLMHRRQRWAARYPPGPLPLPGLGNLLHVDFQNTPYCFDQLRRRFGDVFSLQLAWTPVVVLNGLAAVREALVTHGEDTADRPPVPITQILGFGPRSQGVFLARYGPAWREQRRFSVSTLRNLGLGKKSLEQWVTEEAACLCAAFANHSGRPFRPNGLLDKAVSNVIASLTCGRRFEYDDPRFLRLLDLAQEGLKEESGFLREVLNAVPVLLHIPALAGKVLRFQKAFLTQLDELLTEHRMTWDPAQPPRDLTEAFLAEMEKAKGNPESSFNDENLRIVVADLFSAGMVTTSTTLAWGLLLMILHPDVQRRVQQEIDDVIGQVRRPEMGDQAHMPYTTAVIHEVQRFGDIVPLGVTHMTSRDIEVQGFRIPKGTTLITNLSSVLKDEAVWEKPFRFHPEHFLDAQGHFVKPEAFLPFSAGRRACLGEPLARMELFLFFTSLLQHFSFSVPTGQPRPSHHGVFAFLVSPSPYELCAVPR

SMILES	antinociceptive effects (increase of pain threshold) [1]	plasma concentrations [2]	inhibition of CYP2D6 activity (potency, words) (CYP2D6)
COc1ccc2c(c1)[C@]13CCCCC1[C@H](C2)N(C)CC3 (single isomer, unassigned; (+)) [DM, (+)-3-methoxy-N-methylmorphinan]	significant in poor metabolizers but not in extensive metabolizers	undetectable	–
C=C[C@H]1C[N@@]2CC[C@H]1C[C@@H]2[C@@H](O)c1ccnc2ccc(OC)cc12 [Quinidine, quinidine]	–	–	one of the most potent
